Measurements reported in paper PMC9636434, “Discovery of small molecule agonists of the Relaxin Family Peptide Receptor 2” (Communications Biology, 2022).
“And” between values parts separate entries of the source, which are not always exact repeats. Equal values may be shown once. Read-outs that look alike come from different tables or passages of the source.

What was measured:
Format in all cases: cell-based
human RXFP4 = target: T1, human RXFP4 (Homo sapiens, UniProt Q8TDU9); assay: GloSensor cAMP assay in RXFP4 transiently transfected HEK293T cells; conditions: for RLU (cAMP, raw): RXFP4, 0.1 µM isoproterenol, replicates (1)-(4)
T1 construct: host or cells: HEK293T (transient)
T1 sequence (Q8TDU9 whole entry): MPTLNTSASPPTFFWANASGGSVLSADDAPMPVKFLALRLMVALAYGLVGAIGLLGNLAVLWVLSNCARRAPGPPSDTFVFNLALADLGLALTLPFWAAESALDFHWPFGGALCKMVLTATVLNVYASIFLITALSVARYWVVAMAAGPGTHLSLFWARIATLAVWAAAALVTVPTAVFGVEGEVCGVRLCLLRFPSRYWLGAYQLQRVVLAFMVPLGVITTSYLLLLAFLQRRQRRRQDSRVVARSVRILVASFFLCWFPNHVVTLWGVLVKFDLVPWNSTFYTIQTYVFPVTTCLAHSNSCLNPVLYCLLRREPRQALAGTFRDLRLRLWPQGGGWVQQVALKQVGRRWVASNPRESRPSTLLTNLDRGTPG

RXFP2 [1] = target: T2, RXFP2 (Homo sapiens, UniProt Q8WXD0); assay: PRESTO-Tango β-arrestin recruitment, RXFP2; design: host or cells: HTLA (transient); conditions: 10 µM compound
T2 sequence (Q8WXD0 whole entry): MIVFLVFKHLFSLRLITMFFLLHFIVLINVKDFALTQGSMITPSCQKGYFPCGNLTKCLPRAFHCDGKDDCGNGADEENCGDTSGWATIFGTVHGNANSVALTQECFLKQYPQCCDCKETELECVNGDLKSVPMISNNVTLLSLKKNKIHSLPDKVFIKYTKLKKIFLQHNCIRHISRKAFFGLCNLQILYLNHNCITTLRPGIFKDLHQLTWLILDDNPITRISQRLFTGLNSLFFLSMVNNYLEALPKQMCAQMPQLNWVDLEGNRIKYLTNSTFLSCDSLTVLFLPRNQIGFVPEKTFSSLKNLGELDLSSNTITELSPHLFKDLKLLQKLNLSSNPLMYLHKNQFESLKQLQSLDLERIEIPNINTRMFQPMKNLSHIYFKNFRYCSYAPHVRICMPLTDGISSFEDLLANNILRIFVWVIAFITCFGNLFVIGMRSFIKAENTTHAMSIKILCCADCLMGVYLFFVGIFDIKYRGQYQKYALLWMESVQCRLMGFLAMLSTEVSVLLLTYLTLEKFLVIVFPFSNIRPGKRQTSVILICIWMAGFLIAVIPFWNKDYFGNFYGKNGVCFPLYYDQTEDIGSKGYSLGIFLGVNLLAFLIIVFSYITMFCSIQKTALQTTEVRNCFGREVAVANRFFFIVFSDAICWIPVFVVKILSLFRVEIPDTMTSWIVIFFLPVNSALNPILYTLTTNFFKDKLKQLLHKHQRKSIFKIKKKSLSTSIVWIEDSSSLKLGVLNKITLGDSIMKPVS
Protocol: β-arrestin is an important GPCR adaptor protein that mediates several receptor processes including signaling, desensitization, and trafficking. The PRESTO-Tango GPCRome assay was further used to test specificity and selectivity of lead RXFP2 agonists 6641 and 4337. GPCR-mediated β-arrestin recruitment for a panel of 320 human GPCRs was studied in transiently transfected HTLA cells treated with 10 µM compound. The results for all 320 GPCRs tested are summarized in Supplementary Data 1. […] ADORA1 activation by an agonist results in Gαi protein binding, an inhibition of adenylate cyclase and, therefore, a decrease in the cAMP concentration.
To further investigate possible off-target effects of small molecule agonists of RXFP2 on GPCRs, we performed a PRESTO-Tango assay of 320 GPCRs to detect β-arrestin recruitment to the receptors after treatment with our compounds. […] This might be beneficial in clinical applications, as it potentially reduces the amount of drug needed to induce a biological response for this target, even in cells with low receptor expression. It should be noted also that a PRESTO-Tango assay is not designed to detect inhibitors of β-arrestin recruitment.
The PRESTO-Tango GPCRome assay was used to perform a HTS of related GPCRs to study specificity and selectivity of the RXFP2 agonists by measuring β-arrestin translocation activity. […]

RXFP2 [2] = target: T2, RXFP2; assay: HTRF cAMP assay in HEK-RXFP2 cells (stably transfected; also primary HTS); design: FLAG (N); expressed in transfected cells; conditions: for % Eff (cAMP response): experiments (1)-(3), 100 nM INSL3 = 100%, DMSO = 0%; for EC50: HEK-RXFP2
Protocol: A quantitative high-throughput screening (HTS) of more than 80 K compounds of the NCATS/NIH diversity collection was performed at four concentrations in HEK293T cells stably expressing human RXFP2 to identify candidate agonists. A homogenous time resolved fluorescence (HTRF) assay was used to directly detect compound-induced cAMP accumulation, with forskolin or human recombinant INSL3 serving as positive controls. […] A confirmatory CRE-luciferase cAMP screen was used to eliminate any potential false positives due to assay detection artifacts (Supplementary Fig. 1a).
The cAMP response induced by the compounds was normalized to the cAMP response induced by 100 nM INSL3 as 100% efficacy and the cAMP response induced by DMSO vehicle as 0% efficacy. Emax and EC50 were calculated using four parameter nonlinear fit dose-response stimulation curves. […] Molecular weight (MW).
The HTRF Gs dynamic cAMP assay kit (CisBio, Bedford, MA) was used to measure intracellular cAMP accumulation in HEK293T cells (ATCC, Manassas, VA)[56]. […] The cell stock was verified mycoplasma free and authenticated by ATCC. Transient transfection was accomplished by treating cells in a 6-well plate with a mixture of 2 μg plasmid and 6 μL Lipofectamine 2000 (Invitrogen, Waltham, MA) per manufacturer’s protocol and incubating overnight. For cAMP measurement in 96-well format, HEK293T cells stably transfected with human RXFP2 (HEK-RXFP2), human RXFP1 (HEK-RXFP1), mouse Rxfp1 (HEK-Rxfp1) or transiently transfected with human RXFP1-RXFP2 chimeric receptors were seeded between 7500 and 30,000 cells per well, depending on cell line responsiveness, in serum-free DMEM medium and incubated overnight at 37 °C, 5% CO2. After 18 h, cells were treated with a titration of compound, 2 μM forskolin, or DMSO vehicle. Control wells were also treated with a titration of INSL3 (Phoenix Pharmaceuticals, Burlingame, CA) or human recombinant relaxin 2 (Peprotech, Cranbury, NJ). For the RXFP2 antagonist experiment, cells were co-treated with 0.28 μM compound or 30 nM INSL3 and a titration of the INSL3 B dimer antagonist[38],[39]. For the INSL3 allosteric modulation experiment, cells were co-treated with 0.025, 0.0025, or 0.00025 μM of compound and a titration of INSL3. Cells were incubated for 1 h at 37 °C, 5% CO2, and then kit cAMP-d2 and anti-cAMP antibody were added per manufacturer protocol. Plates were incubated for 1 h at room temperature and the signal was read on a CLARIOstar plate reader (BMG Labtech, Ortenberg, Germany) at 665 and 620 nm emission wavelengths.

`O=C1Nc2ccc(-c3cc(C(F)(F)F)cc(C(F)(F)F)c3)cc2C(=O)N2CCN(C(=O)COc3ccc(OC(F)(F)F)cc3I)C[C@@H]12` [compound 6641] was tested, and the “RLU (cAMP, raw)” value (human RXFP4; Log [M] -4.52) was 2463.26 RLU and 2323.36 RLU and 2574.77 RLU and 2436.25 RLU, the “RLU (cAMP, raw)” value (human RXFP4; Log [M] -5) was 3185.64 RLU and 3376.11 RLU and 2670.35 RLU and 2223.62 RLU and the “RLU (cAMP, raw)” value (human RXFP4; Log [M] -5.52) was 2765.92 RLU and 2530.44 RLU and 2513.13 RLU and 2428.63 RLU. For the same compound, the “RLU (cAMP, raw)” value (human RXFP4; Log [M] -6) was 3247.28 RLU and 3052.66 RLU and 2557.45 RLU and 2549.14 RLU, the “RLU (cAMP, raw)” value (human RXFP4; Log [M] -6.52) was 2853.88 RLU and 2734.06 RLU and 2619.79 RLU and 2767.31 RLU and the “RLU (cAMP, raw)” value (human RXFP4; Log [M] -7) was 2986.17 RLU and 3107.38 RLU and 2961.24 RLU and 2947.39 RLU. For the same compound, the “RLU (cAMP, raw)” value (human RXFP4; Log [M] -7.52) was 3270.14 RLU and 3165.55 RLU and 2781.16 RLU and 2887.13 RLU, the “RLU (cAMP, raw)” value (human RXFP4; Log [M] -8) was 3594.97 RLU and 2898.21 RLU and 2737.53 RLU and 2621.17 RLU and the “RLU (cAMP, raw)” value (human RXFP4; Log [M] -8.52) was 2962.83 RLU and 3046.77 RLU and 3010.47 RLU and 2788.15 RLU. For the same compound, the “RLU (cAMP, raw)” value (human RXFP4; Log [M] -9) was 3689.54 RLU and 3613.16 RLU and 3120.12 RLU and 2641.44 RLU, the “RLU (cAMP, raw)” value (human RXFP4; Log [M] -9.52) was 3253.97 RLU and 3351.52 RLU and 2965.85 RLU and 3151.88 RLU and the “RLU (cAMP, raw)” value (human RXFP4; Log [M] -10) was 3784.82 RLU and 3051.3 RLU and 3541.33 RLU and 3042.99 RLU. The “RLU (cAMP, raw)” value (human RXFP4; Log [M] -10.52) was 2937.88 RLU and 2859.99 RLU and 3018.03 RLU and 2959.05 RLU, the “RLU (cAMP, raw)” value (human RXFP4; Log [M] -11) was 3244.89 RLU and 3354.54 RLU and 2788.9 RLU and 3100.46 RLU and the “RLU (cAMP, raw)” value (human RXFP4; Log [M] -11.52) was 3393.86 RLU and 2984 RLU and 2869.06 RLU and 2844.86 RLU. The “RLU (cAMP, raw)” value (human RXFP4; Log [M] -12) was 3689.54 RLU and 3235.82 RLU and 3343.96 RLU and 2573.39 RLU, the “activation of RXFP4 (cAMP inhibition)” value (human RXFP4; cAMP induced by 0.1 µM isoproterenol) was “does not activate” and the “RXFP2-mediated β-arrestin recruitment” value (RXFP2 [1]) was “not detected”. For the same compound, the “% Eff (cAMP response)” value (RXFP2 [2]; Log [M] -4.60) was 104.78% and 100.31% and 87.28%, the “% Eff (cAMP response)” value (RXFP2 [2]; Log [M] -5.60) was 76.57% and 72.45% and 73.51% and the “% Eff (cAMP response)” value (RXFP2 [2]; Log [M] -6.60) was 55.58% and 48.02% and 47.8%. The “% Eff (cAMP response)” value (RXFP2 [2]; Log [M] -7.60) was 15.09% and 15.05% and 13.98%, the “% Eff (cAMP response)” value (RXFP2 [2]; Log [M] -8.60) was 1.51% and 0.43% and 1.99% and the “% Eff (cAMP response)” value (RXFP2 [2]; Log [M] -9.60) was -0.34% and 0.01% and 0.17%. The “Emax (1)-(3)” value (RXFP2 [2]; individual experiments, % vs. 100 nM INSL3) was 115% and 116.5% and 89.48%, the EC50 (RXFP2 [2]; individual experiments, read-out: EC50 (1)-(3)) was 358 nM and 568 nM and 217 nM and the “Emax (% vs. 100 nM INSL3) (AVERAGE)” value (RXFP2 [2]; mean (± SEM) of 3 independent experiments) was 107% and 106.99 ± 8.77% and 106.99%. For the same compound, the EC50 (RXFP2 [2]; mean (± SEM) of 3 independent experiments, read-out: EC50 (AVERAGE)) was 380 nM and < 1000 nM.
